Reference: patent US20230321043A1, “COMPOUNDS HAVING PSEUDOMONAS ANTI-BIOFILM PROPERTIES” (Københavns Universitet, priority 2020, published 2023)

Columns and labels:
Escherichia coli = experiment: biofilm formation / dispersal, host range; type: cell-based; details: data not shown
[1] = system: P. aeruginosa mPA01 wt and PDE mutants incl. PA4367 (bifA); experiment: dispersal of biofilms of PDE transposon mutants, crystal violet; type: cell-based, Pseudomonas aeruginosa; details: 18 hours old biofilm, two hours of treatment, FIG. 6A
Method: The inventors obtained mutants of all P. aeruginosa PDEs from the Washington P. aeruginosa mPAO1 transposon mutant library and investigated the ability of H6-335-P1 to disperse biofilms formed by each of these mutants in microtiter trays. […]
The resulting cultures were incubated at 37° C. on a rotary shaker (160 RPM) and biofilms were grown for 18 hours, at which time point either 2 μL of a 5 mM H6-335-P1 in 50% DMSO (+) or 2 μL of 50% DMSO (−) were added to each well. After two subsequent hours of growth, the culture supernatants were discarded and the amounts of biofilm present in the wells were quantified by crystal violet (CV) staining (Groizeleau et al., 2016).
The amounts of biofilm prevailing after two hours of treatments were determined for the wt strain mPA01 and each of the PDE mutants. […]

Klebsiella pneumoniea = experiment: biofilm formation / dispersal, host range; type: cell-based; details: data not shown
wt P. aeruginosa biofilm = experiment: biofilm inhibition, microtiter tray, crystal violet staining; type: cell-based, Pseudomonas aeruginosa; details: 8 hours
Method: Briefly, using a microtiter tray format, a 20 hour old culture of wt P. aeruginosa was diluted 1000 fold into 100 μL ABtrace media aliquots supplemented with 0.2% glucose, 0.5% Cas amino acids, 1 μM FeCl3, 0.2% DMSO and varying concentrations (100 μM, 50 μM, 25 μM, 12μM, 6 μM or 0 μM) of either H6-335-P1, H6-335, H6-335-SAR compound 26 or H6-335-SAR compound 25. The resulting microtiter trays were sealed with an air permeable lid, and biofilm cultures were grown on a rotary shaker at 37° C. and 160 RPM for 8 hours. After this, culture-supernatants were discarded and the remaining biomass was stained with crystal violet (Groizeleau et al., 2016). Finally, the amount of Crystal violet bound to the biofilm present in each well was plotted as a function of H6-335-P1, H6-335, H6-335-SAR compound 26 and H6-335-SAR compound 25 in the following concentrations: 100 μM, 50 μM, 25 μM, 12 μM, 6 μM or 0 μM (FIG. 4A). Means and standard deviations (bars) in FIG. 4A represents 4 biological replicates (n=4).

[2] = system: P. aeruginosa wspF mutant; experiment: Congo Red agar plate colony phenotype; type: cell-based, Pseudomonas aeruginosa; details: CR plates supplemented with 100 μM; dark red without compound
Text: The inventors employed mutational analysis with the aim of identifying a putative target of H6-335-P1. The compound Congo Red (CR) binds to exopolymers whose production is positively regulated by c-di-GMP in P. aeruginosa (Friedman, L., and R. Kolter. 2003.
Genes involved in matrix formation in Pseudomonas aeruginosa PA14 biofilms. Molecular Microbiology 51:675-690).

[3] = system: P. aeruginosa biofilms on implants; experiment: P. aeruginosa-infected peritoneal implant model in mice; type: in vivo; details: intraperitoneal
Method: Silicone implants (5 mm long, 6 mm OD×4 mm ID) were incubated with P. aeruginosa cultures (OD 0.1) for 20 hours to allow bacterial adhesion and subsequent coating. At time t=0, mice had the implants inserted in the peritoneal cavity and biofilm developed on the implants for 24 hours. (A) At 24 hours and 26 hours post-insertion of the implants (PI), the mice were treated with either H6-335-P1 (named “H6 P1” in FIG. 8) 25 μM (˜6 μg/g BW) in 0.2% cyclodextrin or 0.2% cyclodextrin, and at 26 hours PI with 30 μg per g BW tobramycin (TOB) or 0.9% NaCl. […] At 28 hours PI the mice were euthanized, and the bacterial contents as CFU per implant were determined. The median CFU per implant for the placebo group was set to 100. The median CFU per implant for the placebo groups were 8.5×10^6 (A) and 1.5×10^6 (B). Horizontal lines indicate median CFU for each group. Each symbol represents a mouse. Significance levels are based on Mann-Whitney U test (analysis of non-parametric data). IP administered doses: TOB: 30 mg/Kg BW, CIP: 10 mg/Kg BW, H6 P1: 2×6 mg/Kg BW.
The inventors first determined H6-335-P1 anti-biofilm efficacy in implant-harboring mice at low dosages (concentration) of 5 to 25 μM H6-335-P1 which corresponds to 1 to 5 μg H6-335-P1 per gram of body weight. […]

[4] = solubility in aqueous media; details: aqueous media
Enterococcus facieum = experiment: biofilm formation / dispersal, host range; type: cell-based; details: data not shown

SMILES: N=C1NN=C(N)/C1=N/Nc1ccccc1F [H6-335-P1, 4-[(2-fluorophenyl) hydrazinylidene]pyrazole-3,5-diamine]
- biofilm formation of Escherichia coli (Escherichia coli): failed to reduce biofilm formation
- induced dispersal of biofilm of the bifA mutant (PA4367) [1]: did not respond to H6-335-P1 induced dispersal
- induced dispersal of biofilms of P. aeruginosa wt and all the remaining PDE mutants [1]: dispersed in response to H6-335-P1 exposure
- biofilm formation of Klebsiella pneumoniea (Klebsiella pneumoniea): failed to reduce biofilm formation
- reduction of biofilm formation (wt P. aeruginosa biofilm; 100 μM, compared to untreated (DMSO control)): 98%
- biofilm inhibition (dose-response, words) (wt P. aeruginosa biofilm; 6 to 100 μM, FIG. 4A): distinct concentration dependent biofilm inhibition
- colony colour on Congo Red plates [2]: white colonies
- biofilm bacteria dispersed from the implant ([3]; 5 to 25 μM (1 to 5 μg per gram of body weight), four hours of exposure, not shown): up to 90%
- CFU on implants, combinatorial treatment followed by tobramycin or ciprofloxacin ([3]; FIG. 8): synergistic antimicrobial (lethal) effects
- solubility [4]: < 2 µM
- biofilm formation of Enterococcus facieum (Enterococcus facieum): failed to reduce biofilm formation
